Data: PubChem BioAssay AID1259407 (Chemical Carcinogenesis Research Information System (CCRIS), 2018)
Activity calls are given as the source filed them. The rule behind the calls is not given here.

Test system: CCRIS mutagenicity, Ames/micronucleus/aberration tests
Assay: CCRIS mutagenicity studies
[1] = Test System: AMES SALMONELLA TYPHIMURIUM, Strain/Indicator: TA98, Metabolic Activation: NONE, Method: PREINCUBATION
[2] = Test System: AMES SALMONELLA TYPHIMURIUM, Strain/Indicator: TA100, Metabolic Activation: NONE, Method: PREINCUBATION
[3] = Test System: AMES SALMONELLA TYPHIMURIUM, Strain/Indicator: TA1535, Metabolic Activation: NONE, Method: PREINCUBATION
[4] = Test System: AMES SALMONELLA TYPHIMURIUM, Strain/Indicator: TA1537, Metabolic Activation: NONE, Method: PREINCUBATION
[5] = Test System: AMES SALMONELLA TYPHIMURIUM, Strain/Indicator: TA97, Metabolic Activation: NONE, Method: PREINCUBATION
[6] = Test System: AMES SALMONELLA TYPHIMURIUM, Strain/Indicator: TA102, Metabolic Activation: NONE, Method: PREINCUBATION
[7] = Test System: AMES SALMONELLA TYPHIMURIUM, Strain/Indicator: TA100, Metabolic Activation: RAT LIVER S-9, PHENOBARBITAL AND 5,6-BENZOFLAVONE, Method: PREINCUBATION

SMILES: CC(=O)/C=C/c1ccco1
- mutagenic call (Test System: AMES SALMONELLA TYPHIMURIUM, Strain/Indicator: TA98, Metabolic Activation: HAMSTER, LIVER, S-9, AROCLOR 1254 (10%), Method: PREINCUBATION): inactive; negative
- mutagenic call [1]: inactive; negative
- mutagenic call (Test System: AMES SALMONELLA TYPHIMURIUM, Strain/Indicator: TA98, Metabolic Activation: RAT, LIVER, S-9, AROCLOR 1254 (10%), Method: PREINCUBATION): inactive; negative
- mutagenic call (Test System: AMES SALMONELLA TYPHIMURIUM, Strain/Indicator: TA100, Metabolic Activation: HAMSTER, LIVER, S-9, AROCLOR 1254 (10%), Method: PREINCUBATION): inactive; negative
- mutagenic call [2]: inactive; negative
- mutagenic call (Test System: AMES SALMONELLA TYPHIMURIUM, Strain/Indicator: TA100, Metabolic Activation: RAT, LIVER, S-9, AROCLOR 1254 (10%), Method: PREINCUBATION): inactive; negative
- mutagenic call (Test System: AMES SALMONELLA TYPHIMURIUM, Strain/Indicator: TA1535, Metabolic Activation: HAMSTER, LIVER, S-9, AROCLOR 1254 (10%), Method: PREINCUBATION): inactive; negative
- mutagenic call [3]: inactive; negative
- mutagenic call (Test System: AMES SALMONELLA TYPHIMURIUM, Strain/Indicator: TA1535, Metabolic Activation: RAT, LIVER, S-9, AROCLOR 1254 (10%), Method: PREINCUBATION): inactive; negative
- mutagenic call (Test System: AMES SALMONELLA TYPHIMURIUM, Strain/Indicator: TA1537, Metabolic Activation: HAMSTER, LIVER, S-9, AROCLOR 1254 (10%), Method: PREINCUBATION): inactive; negative
- mutagenic call [4]: inactive; negative
- mutagenic call (Test System: AMES SALMONELLA TYPHIMURIUM, Strain/Indicator: TA1537, Metabolic Activation: RAT, LIVER, S-9, AROCLOR 1254 (10%), Method: PREINCUBATION): inactive; negative

SMILES: C1CSCN1
- mutagenic call [2]: active; positive

SMILES: O=c1ccn([C@@H]2O[C@H](COP(=O)(O)O)[C@@H](O)[C@H]2O)c(=O)[nH]1
- mutagenic call [5]: inactive; negative
- mutagenic call (Test System: AMES SALMONELLA TYPHIMURIUM, Strain/Indicator: TA97, Metabolic Activation: RAT, LIVER, S-9, AROCLOR 1254, Method: PREINCUBATION): inactive; negative
- mutagenic call [6]: inactive; negative
- mutagenic call (Test System: AMES SALMONELLA TYPHIMURIUM, Strain/Indicator: TA102, Metabolic Activation: RAT, LIVER, S-9, AROCLOR 1254, Method: PREINCUBATION): inactive; negative

SMILES: Nc1cc([N+](=O)[O-])cc([N+](=O)[O-])c1CO
- mutagenic call (End Point: In vitro chromosomal aberrations, Test System: V79 Chinese hamster fibroblasts, Metabolic Activation: None): inactive; negative
- mutagenic call (Test System: Ames Salmonella typhimurium, Strain/Indicator: TA98, Metabolic Activation: None, Method: Standard plate): active; positive
- mutagenic call (Test System: Ames Salmonella typhimurium, Strain/Indicator: TA98, Metabolic Activation: Rat, Liver, S-9, Method: Standard plate): active; positive
- mutagenic call (Test System: Ames Salmonella typhimurium, Strain/Indicator: TA98NR, Metabolic Activation: None, Method: Standard plate): active; positive
- mutagenic call (Test System: Ames Salmonella typhimurium, Strain/Indicator: TA100, Metabolic Activation: None, Method: Standard plate): active; positive
- mutagenic call (Test System: Ames Salmonella typhimurium, Strain/Indicator: TA100, Metabolic Activation: Rat, Liver, S-9, Method: Standard plate): active; positive

SMILES: CCC1(CC(=O)O)OCCc2c1[nH]c1c(C(C)O)cccc21 (stereo unspecified)
- mutagenic call (Test System: AMES SALMONELLA TYPHIMURIUM, Strain/Indicator: TA98, Metabolic Activation: NONE, Method: STANDARD PLATE): inactive; negative
- mutagenic call (Test System: AMES SALMONELLA TYPHIMURIUM, Strain/Indicator: TA98, Metabolic Activation: RAT, LIVER, S-9, Method: STANDARD PLATE): inactive; negative
- mutagenic call (Test System: AMES SALMONELLA TYPHIMURIUM, Strain/Indicator: TA100, Metabolic Activation: NONE, Method: STANDARD PLATE): inactive; negative
- mutagenic call (Test System: AMES SALMONELLA TYPHIMURIUM, Strain/Indicator: TA100, Metabolic Activation: RAT, LIVER, S-9, Method: STANDARD PLATE): inactive; negative
- mutagenic call (Test System: AMES SALMONELLA TYPHIMURIUM, Strain/Indicator: TA1535, Metabolic Activation: NONE, Method: STANDARD PLATE): inactive; negative
- mutagenic call (Test System: AMES SALMONELLA TYPHIMURIUM, Strain/Indicator: TA1535, Metabolic Activation: RAT, LIVER, S-9, Method: STANDARD PLATE): inactive; negative
- mutagenic call (Test System: AMES SALMONELLA TYPHIMURIUM, Strain/Indicator: TA1537, Metabolic Activation: NONE, Method: STANDARD PLATE): inactive; negative
- mutagenic call (Test System: AMES SALMONELLA TYPHIMURIUM, Strain/Indicator: TA1537, Metabolic Activation: RAT, LIVER, S-9, Method: STANDARD PLATE): inactive; negative
- mutagenic call (Test System: E. COLI, Strain/Indicator: WP2 UVRA, Metabolic Activation: NONE, Method: STANDARD PLATE): inactive; negative
- mutagenic call (Test System: E. COLI, Strain/Indicator: WP2 UVRA, Metabolic Activation: RAT, LIVER, S-9, Method: STANDARD PLATE): inactive; negative

SMILES: c1cc(OCC2CO2)ccc1Cc1ccc(OCC2CO2)cc1 (stereo unspecified)
- mutagenic call (End Point: In vitro micronucleus, Test System: HepG2 cells, Metabolic Activation: None): inactive; negative

SMILES: CC(=O)[O-].CC(=O)[O-].O.O.O.O.[Co+2]
- mutagenic call (End Point: In vitro chromosomal aberrations, Test System: Chinese hamster lung (CHL/IU) cells, Metabolic Activation: None): active; positive (structural changes)
- mutagenic call (End Point: In vitro chromosomal aberrations, Test System: Chinese hamster lung (CHL/IU) cells, Metabolic Activation: Rat, Liver, S9, Phenobarbital and 5,6-benzoflavone): active; positive (structural changes)
- mutagenic call (Test System: Ames Salmonella typhimurium, Strain/Indicator: TA98, Metabolic Activation: Rat, Liver, S9, Sodium phenobarbital and 5,6-benzoflavone (10%), Method: Preincubation): inactive; negative
- mutagenic call (Test System: Ames Salmonella typhimurium, Strain/Indicator: TA100, Metabolic Activation: Rat, Liver, S9, Sodium phenobarbital and 5,6-benzoflavone (10%), Method: Preincubation): inactive; negative
- mutagenic call (Test System: Ames Salmonella typhimurium, Strain/Indicator: TA1535, Metabolic Activation: None, Method: Preincubation): inactive; negative
- mutagenic call (Test System: Ames Salmonella typhimurium, Strain/Indicator: TA1535, Metabolic Activation: Rat, Liver, S9, Sodium phenobarbital and 5,6-benzoflavone (10%), Method: Preincubation): inactive; negative
- mutagenic call (Test System: Ames Salmonella typhimurium, Strain/Indicator: TA1537, Metabolic Activation: Rat, Liver, S9, Sodium phenobarbital and 5,6-benzoflavone (10%), Method: Preincubation): inactive; negative
- mutagenic call (Test System: E. coli, Strain/Indicator: WP2uvrA/pKM101, Metabolic Activation: None, Method: Preincubation): active; positive
- mutagenic call (Test System: E. coli, Strain/Indicator: WP2uvrA/pKM101, Metabolic Activation: Rat, Liver, S9, Sodium phenobarbital and 5,6-benzoflavone (10%), Method: Preincubation): inactive; negative

SMILES: C=Cc1c(C)c2[n-]c1=CC1=NC(=CC3=C(C)C(=C([O-])[O-])C(=N3)C(CC(=O)[O-])=C3N=C(C=2)C(C)C3CCC(=O)[O-])C(CC)=C1C.[Cu+2].[Na+].[Na+].[Na+] (stereo unspecified)
- mutagenic call [5]: inactive; negative
- mutagenic call (Test System: AMES SALMONELLA TYPHIMURIUM, Strain/Indicator: TA97, Metabolic Activation: S-9, Method: PREINCUBATION): inactive; negative
- mutagenic call [6]: inactive; negative
- mutagenic call (Test System: AMES SALMONELLA TYPHIMURIUM, Strain/Indicator: TA102, Metabolic Activation: S-9, Method: PREINCUBATION): inactive; negative
- mutagenic call (Test System: CHINESE HAMSTER OVARY, Strain/Indicator: CHO-K1 (HGPRT)/6-THIOGUANINE): inactive; negative

SMILES: Fc1c(F)c(F)c2ncccc2c1F
- mutagenic call [7]: active; positive

SMILES: CCCN(COC(C)=O)N=O
- mutagenic call (Test System: UDS RAT UROTHELIAL CELLS, Strain/Indicator: THY INCORP, Metabolic Activation: NONE): active; positive

SMILES: CNCc1ccc(CSCCNC(=NCC(O)c2ccc(O)cc2)NS(C)(=O)=O)o1 (stereo unspecified)
- mutagenic call [1]: inactive; negative
- mutagenic call (Test System: AMES SALMONELLA TYPHIMURIUM, Strain/Indicator: TA98, Metabolic Activation: RAT LIVER S-9, PHENOBARBITAL AND 5,6-BENZOFLAVONE, Method: PREINCUBATION): inactive; negative
- mutagenic call [2]: inactive; negative
- mutagenic call [7]: inactive; negative
- mutagenic call [3]: inactive; negative
- mutagenic call (Test System: AMES SALMONELLA TYPHIMURIUM, Strain/Indicator: TA1535, Metabolic Activation: RAT LIVER S-9, PHENOBARBITAL AND 5,6-BENZOFLAVONE, Method: PREINCUBATION): inactive; negative
- mutagenic call [4]: inactive; negative
- mutagenic call (Test System: AMES SALMONELLA TYPHIMURIUM, Strain/Indicator: TA1537, Metabolic Activation: RAT LIVER S-9, PHENOBARBITAL AND 5,6-BENZOFLAVONE, Method: PREINCUBATION): inactive; negative
- mutagenic call (Test System: E.COLI, Strain/Indicator: WP2 UVRA, Metabolic Activation: NONE, Method: PREINCUBATION): inactive; negative
- mutagenic call (Test System: E.COLI, Strain/Indicator: WP2 UVRA, Metabolic Activation: RAT LIVER S-9, PHENOBARBITAL AND 5,6-BENZOFLAVONE, Method: PREINCUBATION): inactive; negative

SMILES: Cc1cnc2c(C)c(C)c3c(nc(N)n3C)c2n1
- mutagenic call (Test System: AMES SALMONELLA TYPHIMURIUM, Strain/Indicator: TA98, Metabolic Activation: RAT, LIVER, S-9, AROCLOR 1254, Method: STANDARD PLATE): active; positive
